Consider 33 compounds from US7994209B2, “3-phenoxymethylpyrrolidine compounds” (Theravance, Inc., priority 2009, dated 2011).

Marks after values point to notes of the source that are not given here. Some results are limits rather than exact numbers.

Experiment [1] addresses T1, hSERT (Homo sapiens, UniProt P31645). In words: fluorescence-based serotonin reuptake inhibition assay (Tsuruda et al. 2010; data indicated by an asterisk). The class given is cell-based. Set-up: expressed in transfected cells; host or cells: HEK-293. Particulars: fluorescence-based assay (values with asterisk); for IC50: read-out: SERT pIC50 (converted).
For experiment [2], the target named is T2, hNET (Homo sapiens, UniProt P23975). In words: fluorescence-based norepinephrine reuptake inhibition assay (Tsuruda et al. 2010; data indicated by an asterisk). The experiment is classed as cell-based. On the set-up: expressed in transfected cells; host or cells: HEK-293. The conditions noted are these: fluorescence-based assay (values with asterisk).
Experiment [3] concerns the target T1, hSERT. In words: hSERT membrane radioligand binding assay (3H-citalopram), Assay 1. Particulars: SERT pKi, hSERT HEK-293 membranes, 1.0 nM 3H-citalopram; values given as lower bounds.
The target in experiment [4] is T2, hNET. In words: hNET membrane radioligand binding assay (3H-nisoxetine), Assay 1.
For experiment [5], the target named is T1, hSERT. In words: hSERT neurotransmitter uptake assay (3H-5-HT), Assay 2. The conditions noted are these: serotonin reuptake inhibition, 3H-5-HT uptake, HEK-293 hSERT cells (values without asterisk); read-out: SERT pIC50 (converted). The class given is cell-based. Set-up: expressed in transfected cells; host or cells: HEK-293.
Experiment [6] addresses T2, hNET. The experiment can be described thus: hNET neurotransmitter uptake assay (3H-NE), Assay 2. The experiment is classed as cell-based. On the set-up: expressed in transfected cells; host or cells: HEK-293. The conditions noted are these: norepinephrine reuptake inhibition, 3H-NE uptake, HEK-293 hNET cells (values without asterisk); read-out: NET pIC50 (converted).
Setting [7] is: norepinephrine reuptake inhibition, read-out: NET pIC50 (converted).

T2 sequence (P23975 whole entry): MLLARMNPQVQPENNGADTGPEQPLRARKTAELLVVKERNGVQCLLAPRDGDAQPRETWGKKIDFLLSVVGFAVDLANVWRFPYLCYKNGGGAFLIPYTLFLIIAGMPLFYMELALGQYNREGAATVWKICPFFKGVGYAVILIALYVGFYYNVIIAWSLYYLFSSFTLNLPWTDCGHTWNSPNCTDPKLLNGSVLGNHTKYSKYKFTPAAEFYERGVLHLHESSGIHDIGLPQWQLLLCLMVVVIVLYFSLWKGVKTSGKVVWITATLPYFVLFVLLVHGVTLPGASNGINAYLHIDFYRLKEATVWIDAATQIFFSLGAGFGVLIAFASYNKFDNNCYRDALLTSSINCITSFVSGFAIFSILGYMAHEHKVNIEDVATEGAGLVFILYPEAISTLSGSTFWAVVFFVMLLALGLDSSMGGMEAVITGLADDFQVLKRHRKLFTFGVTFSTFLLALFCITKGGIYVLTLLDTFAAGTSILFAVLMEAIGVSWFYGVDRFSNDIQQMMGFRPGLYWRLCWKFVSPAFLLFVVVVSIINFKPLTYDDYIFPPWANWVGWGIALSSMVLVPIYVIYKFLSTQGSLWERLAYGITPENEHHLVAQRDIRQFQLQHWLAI
T1 sequence (P31645 whole entry): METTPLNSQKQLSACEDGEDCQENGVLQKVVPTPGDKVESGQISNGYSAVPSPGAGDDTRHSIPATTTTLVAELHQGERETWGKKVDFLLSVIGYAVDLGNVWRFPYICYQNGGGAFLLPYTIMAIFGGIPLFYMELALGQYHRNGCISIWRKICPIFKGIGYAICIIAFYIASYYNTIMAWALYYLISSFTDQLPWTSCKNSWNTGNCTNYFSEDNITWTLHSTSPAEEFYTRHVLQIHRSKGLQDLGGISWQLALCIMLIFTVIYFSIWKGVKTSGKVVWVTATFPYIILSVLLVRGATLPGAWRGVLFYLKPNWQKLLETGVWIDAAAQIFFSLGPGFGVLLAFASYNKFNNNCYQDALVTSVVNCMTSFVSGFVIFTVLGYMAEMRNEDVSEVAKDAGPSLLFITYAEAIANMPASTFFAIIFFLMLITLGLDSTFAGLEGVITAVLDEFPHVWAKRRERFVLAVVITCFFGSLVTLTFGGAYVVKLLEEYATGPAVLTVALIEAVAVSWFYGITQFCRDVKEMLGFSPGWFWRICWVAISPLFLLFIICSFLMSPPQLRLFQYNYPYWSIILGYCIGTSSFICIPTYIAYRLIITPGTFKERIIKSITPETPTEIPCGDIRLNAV

In the case of `CCC[C@@H](Oc1c(Cl)ccc(Cl)c1Cl)[C@H]1CCNC1` [Example 4-26, (S)-3-[(R)-1-(2,3,6-Trichlorophenoxy)butyl]pyrrolidine], the IC50 at hSERT [1] and at hNET [2] (setting [7]) was no more than 0.01 µM throughout.
Consider `CCC[C@H](Oc1c(F)cc(Cl)cc1Cl)[C@H]1CCNC1` [Example 4-40, (S)-3-[(S)-1-(2,4-Dichloro-6-fluorophenoxy)butyl]pyrrolidine], for which the IC50 on hSERT [1] and at hNET [2] (setting [7]) was no more than 0.01 µM throughout.
As to `CC(C)C[C@H](Oc1c(F)cc(Cl)cc1F)[C@H]1CCNC1` [Example 10-67, (S)-3-[(S)-1-(4-Chloro-2,6-difluorophenoxy)-3-methylbutyl]pyrrolidine], the IC50 at hSERT [1] and on hNET [2] (setting [7]) was no more than 0.01 µM each time.
Take `COc1ccc(F)c(O[C@H](C(C)C)[C@@H]2CCNC2)c1Cl` [Example 6-37, (R)-3-[(R)-1-(2-Chloro-6-fluoro-3-methoxyphenoxy)-2-methylpropyl]pyrrolidine]: the IC50 on hSERT [1] and at hNET [2] (setting [7]) was no more than 0.01 µM in each case.
Regarding `Cc1ccc(OC(C2CCCC2)C2CCNC2)c(Cl)c1` (stereo not shown) [Example 18-6, 3-[(2-Chloro-4-methylphenoxy)cyclopentylmethyl]pyrrolidine], the “SERT pIC50” value on hSERT [1] is “≧8.0*”. Further, at hNET [2] (setting [7]), the IC50 is no more than 0.1 µM.
On to `CC(C)C[C@H](Oc1c(F)ccc(F)c1Cl)[C@H]1CCNC1` [Example 10-63, (S)-3-[(S)-1-(2-Chloro-3,6-difluorophenoxy)-3-methylbutyl]pyrrolidine], for which the IC50 at hSERT [1] and at hNET [2] (setting [7]) was no more than 0.01 µM each time.
For `Fc1c(Cl)ccc(O[C@@H](C2CC2)[C@H]2CCNC2)c1F` [Example 16-48, (S)-3-[(S)-(4-Chloro-2,3-difluorophenoxy)cyclopropylmethyl]pyrrolidine], the IC50 on hSERT [1] and on hNET [2] (setting [7]) was no more than 0.01 µM each time.
Take `CC(C)[C@H](Oc1cccc2ccccc12)[C@@H]1CCNC1` [Example 14-4, (R)-3-[(S)-2-Methyl-1-(naphthalen-1-yloxy)propyl]pyrrolidine]: the IC50 was no more than 0.01 µM at hSERT [1] and no more than 0.1 µM at hNET [2] (setting [7]).
On the same counts, the results for `CC(C)[C@@H](Oc1ccc(Cl)c(Cl)c1)[C@H]1CCNC1` [Example 6-63, (S)-3-[(R)-1-(3,4-Dichlorophenoxy)-2-methylpropyl]pyrrolidine] are no more than 0.01 µM and no more than 0.1 µM.
On to `Clc1ccc(OC(C2CCCC2)C2CCNC2)c(Cl)c1` (single isomer, unassigned) [Example 18-4, 3-[Cyclopentyl-(2,4-dichlorophenoxy)methyl]pyrrolidine], for which the IC50 at hSERT [1] is no more than 0.01 µM; on hNET [2] (setting [7]), no more than 0.1 µM.
The matching figures for `CC[C@@H](Oc1ccc(Cl)c(Cl)c1)[C@H]1CCNC1` [Example 2-8, (S)-3-[(R)-1-(3,4-Dichlorophenoxy)propyl]pyrrolidine]: no more than 0.01 µM and no more than 0.1 µM.
The matching figures for `CC(C)C[C@H](Oc1c(Cl)c(F)cc(F)c1Cl)[C@H]1CCNC1` [Example 10-85, (S)-3-[(S)-1-(2,6-Dichloro-3,5-difluorophenoxy)-3-methylbutyl]pyrrolidine]: no more than 0.01 µM and no more than 0.01 µM.
On the same counts, the results for `Fc1ccc(OC(C2CCCC2)C2CCNC2)cc1` (stereo not shown) [Example 18-12, 3-[Cyclopentyl-(4-fluorophenoxy)methyl]pyrrolidine] are no more than 0.1 µM and no more than 0.1 µM.
Regarding `COc1cc(Cl)cc(O[C@@H](C2CC2)[C@H]2CCNC2)c1` [Example 16-100, (S)-3-[(S)-(3-Chloro-5-methoxyphenoxy)cyclopropylmethyl]pyrrolidine], the IC50 is no more than 0.1 µM at hSERT [1] and no more than 0.01 µM at hNET [2] (setting [7]).
The matching figures for `CCC[C@@H](Oc1cccc(F)c1F)[C@H]1CCNC1` [Example 4-44, (S)-3-[(R)-1-(2,3-Difluorophenoxy)butyl]pyrrolidine]: no more than 0.1 µM and no more than 0.01 µM.
As for `CC[C@@H](Oc1ccc(Cl)cc1Cl)[C@H]1CCNC1` [Example 2-34, (S)-3-[(R)-1-(2,4-Dichlorophenoxy)propyl]pyrrolidine], the IC50 is no more than 0.01 µM on hSERT [1] and no more than 0.1 µM on hNET [2] (NET pIC50, norepinephrine reuptake inhibition).
In the case of `Cc1cc(Cl)cc(Cl)c1O[C@H](C1CC1)[C@H]1CCNC1` [Example 16-78, (S)-3-[(R)cyclopropyl-(2,4-dichloro-6-methylphenoxy)methyl]pyrrolidine], the IC50 at hSERT [1] and at hNET [2] (setting [7]) was no more than 0.1 µM in each case.
As for `CC(C)[C@@H](Oc1cc(F)cc(Cl)c1)[C@H]1CCNC1` [Example 6-60, (S)-3-[(R)-1-(3-Chloro-5-fluorophenoxy)-2-methylpropyl]pyrrolidine], the IC50 on hSERT [1] and on hNET [2] (setting [7]) was no more than 0.01 µM in each case.
`CC(C)[C@@H](Oc1ccc(Cl)c(F)c1)[C@@H]1CCNC1` [Example 6-58, (R)-3-[(R)-1-(4-Chloro-3-fluorophenoxy)-2-methylpropyl]pyrrolidine]: the IC50 on hSERT [1] is no more than 0.01 µM; on hNET [2] (setting [7]) it was no more than 0.1 µM.
The matching figures for `CC[C@H](Oc1cc(F)cc(Cl)c1)[C@H]1CCNC1` [Example 2-10, (S)-3-[(S)-1-(3-Chloro-5-fluorophenoxy)propyl]pyrrolidine]: no more than 0.1 µM and no more than 0.01 µM.
Turning to `Cc1cc(O[C@H](C2CC2)[C@H]2CCNC2)c(Cl)cc1Cl` [Example 16-73, (S)-3-[(R)cyclopropyl-(2,4-dichloro-5-methylphenoxy)methyl]pyrrolidine], the figures for the inhibition constant (Ki) on hSERT [3] and at hNET [4] were no more than 0.01 µM and no more than 3.16 µM, respectively. Also, the IC50 on hSERT [1] was no more than 0.1 µM.
For the compound `CC[C@@H](Oc1c(F)ccc(OC)c1Cl)[C@H]1CCNC1` [Example 2-45, (S)-3-[(R)-1-(2-Chloro-6-fluoro-3-methoxyphenoxy)propyl]pyrrolidine], the IC50 on hSERT [1] and on hNET [2] (setting [7]) was no more than 0.01 µM in each case.
As to `CCC[C@@H](Oc1ccc(Cl)c(C)c1)[C@H]1CCNC1` [Example 4-15, (S)-3-[(R)-1-(4-Chloro-3-methylphenoxy)butyl]pyrrolidine], the IC50 at hSERT [1] was no more than 0.01 µM; on hNET [2] (setting [7]), no more than 0.1 µM.
Consider `Cc1cc(O[C@H](CC(C)C)[C@H]2CCNC2)ccc1Cl` [Example 10-76, (S)-3-[(R)-1-(4-Chloro-3-methylphenoxy)-3-methylbutyl]pyrrolidine], for which the IC50 was no more than 0.01 µM on hSERT [1] and no more than 0.1 µM at hNET [2] (setting [7]).
As for `CCC[C@@H](Oc1ccc(F)c(F)c1F)[C@H]1CCNC1` [Example 4-49, (S)-3-[(R)-1-(2,3,4-Trifluorophenoxy)butyl]pyrrolidine], the figures for the IC50 at hSERT [1] and on hNET [2] (setting [7]) were no more than 0.01 µM and no more than 0.1 µM, respectively.
On the same counts, the results for `CCC[C@@H](Oc1ccc(Cl)cc1C)[C@@H]1CCNC1` [Example 4-61, (R)-3-[(R)-1-(4-Chloro-2-methylphenoxy)butyl]pyrrolidine] are no more than 0.1 µM and no more than 0.1 µM.
The matching figures for `CC(C)C[C@H](Oc1c(F)ccc(Cl)c1Cl)[C@H]1CCNC1` [Example 10-65, (S)-3-[(S)-1-(2,3-Dichloro-6-fluorophenoxy)-3-methylbutyl]pyrrolidine]: no more than 0.01 µM and no more than 0.01 µM.
For the compound `CC(C)[C@H](Oc1ccc(Cl)cc1)[C@H]1CCNC1` [Example 5, (S)-3-[(S)-1-(4-Chlorophenoxy)-2-methylpropyl]pyrrolidine], the Ki at hSERT [3] and on hNET [4] was no more than 0.01 µM in each case. In addition, the IC50 at hSERT [5] and on hNET [6] was no more than 0.01 µM throughout.
With `CC[C@H](Oc1ccc(Cl)c(C)c1)[C@H]1CCNC1` [Example 2-13, (S)-3-[(S)-1-(4-Chloro-3-methylphenoxy)propyl]pyrrolidine], the Ki on hSERT [3] and on hNET [4] was no more than 0.01 µM each time. For the same compound, the IC50 on hSERT [5] and at hNET [6] was no more than 0.01 µM throughout.
Turning to `CCCC[C@@H](Oc1ccccc1Cl)[C@H]1CCNC1` [Example 8-1, (S)-3-[(R)-1-(2-Chlorophenoxy)pentyl]pyrrolidine], the Ki at hSERT [3] and at hNET [4] was no more than 0.01 µM in each case. Besides, the IC50 is no more than 0.1 µM at hSERT [5] and no more than 0.01 µM at hNET [6].
With `CC(C)CC(Oc1c(F)cc(Cl)cc1F)C1CCNC1` (stereo not shown) [Example 10-66, 3-[1-(4-Chloro-2,6-difluorophenoxy)-3-methylbutyl]pyrrolidine], the inhibition constant (Ki) at hSERT [3] and on hNET [4] was no more than 0.01 µM each time. In addition, the IC50 on hSERT [5] and at hNET [6] was no more than 0.01 µM throughout.
As for `CC(C)[C@H](Oc1c(Cl)c(F)cc(F)c1Cl)[C@H]1CCNC1` [Example 6-38, (S)-3-[(S)-1-(2,6-Dichloro-3,5-difluorophenoxy)-2-methylpropyl]pyrrolidine], the inhibitory constant (Ki) on hSERT [3] and at hNET [4] was no more than 0.01 µM in each case. For the same compound, the figures for the IC50 on hSERT [5] and on hNET [6] were no more than 0.1 µM and no more than 0.01 µM, respectively.
For `CC(C)C[C@H](Oc1cc(Cl)cc(Cl)c1)[C@H]1CCNC1` [Example 10-77, (S)-3-[(S)-1-(3,5-Dichlorophenoxy)-3-methylbutyl]pyrrolidine], the inhibitory constant (Ki) at hSERT [3] and on hNET [4] was no more than 0.01 µM in each case. The IC50 at hSERT [5] and at hNET [6] was no more than 0.01 µM throughout.

By Ki is commonly meant a measure of affinity in units of concentration, obtained from inhibition or displacement. Low values mean a stronger hold on the target, high ones a looser hold on the target.
